Patent publication US12384753B2, “17-beta-hydroxysteroid dehydrogenase type 13 inhibitors and methods of use thereof” (Enanta Pharmaceuticals, Inc., priority 2021, dated 2025)

The compounds below were run against Recombinant human HSD17B13 (Homo sapiens (Human), UniProt Q7Z5P4) (assay: HSD17B13 rapid-fire mass spectrometry assay (RF/MS assay)). Settings: inhibition of HSD17B13; LTB4 10 μM, NAD+ 0.5 mM, RT 3 h; IC50 ranges A-E.
Assay type: biochemical
Text: HSD17B13 rapid-fire mass spectrometry assay (RF/MS assay). Recombinant human HSD17B13 was expressed and purified from sf9 cells at Charles River Labs (Saffron Walden, UK). Leukotriene B4 (Catalog #71160-24-2) and 12-oxoleukotriene B4 (Catalog #20140) were purchased from Cayman Chemicals (Ann Arbor, Michigan.). NAD+ (Catalog #N8285), BSA (Catalog #A7030), DMSO (Catalog #D2650), and Tween-20 (Catalog #11332465001) were purchased from Sigma (St. Louis, MO). Formic acid (Catalog #28905) was from ThermoFisher Scientific and 384 deep well PP microplates (Catalog #784261) were from Greiner Bio-One. In a typical IC50 assay performed in a 384w PP microplate, test compounds (0-100 μM) were incubated with HSD17B13 (80 nM), LTB4 (10 μM), and NAD^+ (0.5 mM) in 10 μL assay buffer (20 mM Tris (pH 7.5), BSA (0.005%), and Tween-20 (0.01%)) at RT for 3 h. The assays were quenched by adding 20 μL of 0.15% aqueous formic acid and the plates were frozen at −80° C. RF/MS analysis was performed at PureHoney Technologies (Billerica, MA) on a RapidFire RF300 system (Agilent Technologies, Inc.) coupled to an API 4000 triple quadrupole mass spectrometer (Sciex) equipped with Agilent RapidFire cartridge type A (C4). The mobile phase was 0.09% formic acid and 0.01% trifluoracetic acid in water (Buffer A) and 0.09% formic acid and 0.01% trifluoracetic acid in 80% aqueous acetonitrile (Buffer B). The RapidFire method conditions were the following: 250 ms aspirate, 3000 ms load/desalt, 4000 ms elute, and 500 ms re-equilibrate. RF-MS/MS was performed in negative polarity (−4500 V), the source temperature was 650° C., and gas 1 and gas 2 settings for nitrogen were set to 50. The curtain gas and collision gas were also nitrogen and were set to 20 and 12, respectively. Leukotriene B4 (335.3) and 12-oxoLeukotriene B4 (333.3) SRM transitions were optimized with Discovery Quant software and extracted ion counts for these analytes were determined.
Data Analysis. HSD17B13 enzyme activity was measured as percent conversion of extracted ion counts and normalized to high and low controls to determine percent residual activity at various concentrations of test compounds. Data were fitted to normalized activity (variable slope) versus concentration fit in GraphPad Prism 7 to determine IC50. All experiments were run in duplicates.
By using above method, the inhibition of HSD17B13 was evaluated for the compounds of Formula (I). IC50 ranges are as follows: A=IC50<0.100 μM; B=0.100 μM<IC50<0.500 μM; C=0.500 μM<IC50<1 μM; D=1 μM<IC50<100 μM; E=IC50>100 μM

Chain of Recombinant human HSD17B13 (Q7Z5P4 20-300): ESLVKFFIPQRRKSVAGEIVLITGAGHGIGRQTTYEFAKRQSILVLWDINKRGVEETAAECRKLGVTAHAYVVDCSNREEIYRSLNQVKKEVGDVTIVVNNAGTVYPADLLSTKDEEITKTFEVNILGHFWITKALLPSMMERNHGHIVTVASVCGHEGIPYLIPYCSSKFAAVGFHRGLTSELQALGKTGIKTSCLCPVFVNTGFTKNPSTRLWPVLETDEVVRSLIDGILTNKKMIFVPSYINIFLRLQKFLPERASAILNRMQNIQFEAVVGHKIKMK

Row | IC50 [µM] | SMILES
1 | 0.1 to 0.5 | COc1cc(C(=O)O)ccc1NS(=O)(=O)c1csc(C2CCC(c3ccccc3)CC2)n1 (single isomer, unassigned) [Example 369]
2 | 0.5 to 1 | CCOc1cc(C(=O)O)ccc1NS(=O)(=O)c1cnc(-c2ccc(F)cc2)s1 [Example 1]
3 | 1 to 100 | O=C(O)c1ccc(NS(=O)(=O)c2ccc(F)cc2)cc1 [Example 3]
4 | 1 to 100 | O=C(O)c1ccc(NS(=O)(=O)c2ccc3ccccc3c2)cc1 [Example 4]
5 | > 100 | COc1cc2c(cc1C(=O)O)CN(S(=O)(=O)c1ccc(F)cc1)CC2 [Example 5, 2-((4-fluorophenyl)sulfonyl)-6-methoxy-1,2,3,4-tetrahydroisoquinoline-7-carboxylic acid]
6 | 1 to 100 | O=C(O)c1cc2c(cc1F)CCN(S(=O)(=O)c1ccc(F)cc1)C2 [Example 6, 6-fluoro-2-((4-fluorophenyl)sulfonyl)-1,2,3,4-tetrahydroisoquinoline-7-carboxylic acid]
7 | 1 to 100 | O=C(O)c1ccc2c(c1)CCCN2S(=O)(=O)c1ccc(F)cc1 [Example 7]
8 | > 100 | COc1nc2c(cc1C(=O)O)CN(S(=O)(=O)c1ccc(F)cc1)CC2 [Example 8, 6-((4-fluorophenyl)sulfonyl)-2-methoxy-5,6,7,8-tetrahydro-1,6-naphthyridine-3-carboxylic acid]
9 | 1 to 100 | O=C(O)c1cc2c(cc1F)OCCN2S(=O)(=O)c1ccc(F)cc1 [Example 9, 7-fluoro-4-((4-fluorophenyl)sulfonyl)-3,4-dihydro-2H-benzo[b][1,4]oxazine-6-carboxylic acid]
10 | 1 to 100 | O=C(O)c1ccc2c(c1)N(S(=O)(=O)c1ccc(F)cc1)CC2 [Example 10]
11 | > 100 | O=C(O)c1ccc2c(c1)CN(S(=O)(=O)c1ccc(F)cc1)C2 [Example 11]
12 | > 100 | O=C(O)c1ccc2c(c1)CCN2S(=O)(=O)c1ccc(F)cc1 [Example 12]
13 | 1 to 100 | O=C(O)c1ccc2c(c1)CCN2S(=O)(=O)c1ccccc1 [Example 13]
14 | 1 to 100 | O=C(O)c1cc2c(cc1F)N(S(=O)(=O)c1ccc(F)cc1)CCC2 [Example 14, 7-fluoro-1-((4-fluorophenyl)sulfonyl)-1,2,3,4-tetrahydroquinoline-6-carboxylic acid]
15 | 0.5 to 1 | O=C(O)c1ccc(NS(=O)(=O)c2csc(-c3ccccc3)n2)cc1 [Example 15]
16 | 1 to 100 | O=C(O)c1ccccc1NS(=O)(=O)c1cnc(-c2ccc(F)cc2)s1 [Example 16]
17 | > 100 | O=C(O)c1cccc(NS(=O)(=O)c2cnc(-c3ccc(F)cc3)s2)c1 [Example 17]
18 | 1 to 100 | COC(=O)c1ccc(NS(=O)(=O)c2cnc(-c3ccc(F)cc3)s2)cc1C [Example 18]
19 | 0.5 to 1 | Cc1cc(NS(=O)(=O)c2cnc(-c3ccc(F)cc3)s2)ccc1C(=O)O [Example 19]
20 | 1 to 100 | Cc1cc(C(=O)O)ccc1NS(=O)(=O)c1cnc(-c2ccc(F)cc2)s1 [Example 20]

Row | IC50 [µM] | SMILES
21 | 0.5 to 1 | O=C(O)c1ccc(NS(=O)(=O)c2cnc(-c3ccc(F)cc3)s2)cc1F [Example 21]
22 | 1 to 100 | COc1cc(NS(=O)(=O)c2cnc(-c3ccc(F)cc3)s2)ccc1C(=O)O [Example 22]
23 | < 0.1 | COc1cc(C(=O)O)ccc1NS(=O)(=O)c1cnc(-c2ccc(F)cc2)s1 [Example 23]
24 | > 100 | O=S(=O)(Nc1ccccc1)c1cnc(-c2ccc(F)cc2)s1 [Example 24]
25 | > 100 | O=S(=O)(Nc1ccccc1)c1csc(-c2ccccc2)n1 [Example 25]
26 | 1 to 100 | O=C(O)c1ccc(NS(=O)(=O)c2cnc(-c3ccc(F)cc3)s2)cn1 [Example 26]
27 | 1 to 100 | O=C(O)Cc1ccc(NS(=O)(=O)c2cnc(-c3ccc(F)cc3)s2)cc1 [Example 27]
28 | 0.1 to 0.5 | O=C(O)c1ccc(NS(=O)(=O)c2cnc(-c3ccc(F)cc3)s2)c(F)c1 [Example 28]
29 | 1 to 100 | O=C(O)c1ccc(CNS(=O)(=O)c2cnc(-c3ccc(F)cc3)s2)cc1 [Example 29]
30 | > 100 | O=C(O)Cc1ccc(CNS(=O)(=O)c2cnc(-c3ccc(F)cc3)s2)cc1 [Example 30]
31 | 1 to 100 | CC(C)(C)c1ccc(S(=O)(=O)NC(=O)c2ccc(NS(=O)(=O)c3cnc(-c4ccc(F)cc4)s3)cc2)cc1 [Example 31, N-((4-(tert-butyl)phenyl)sulfonyl)-4-((2-(4-fluorophenyl)thiazole)-5-sulfonamido)benzamide]
32 | 1 to 100 | CN(C)S(=O)(=O)NC(=O)c1ccc(NS(=O)(=O)c2cnc(-c3ccc(F)cc3)s2)cc1 [Example 32]
33 | 1 to 100 | O=C(O)c1ccc(NS(=O)(=O)c2cnc(-c3ccc(F)cc3)s2)nc1 [Example 33]
34 | 1 to 100 | O=S(=O)(Nc1ccc(-c2nnn[nH]2)cc1)c1cnc(-c2ccc(F)cc2)s1 [Example 34]
35 | 1 to 100 | Cn1nnnc1-c1ccc(NS(=O)(=O)c2cnc(-c3ccc(F)cc3)s2)cc1 [Example 35]
36 | 1 to 100 | O=S(=O)(Nc1ccc(CO)cc1)c1cnc(-c2ccc(F)cc2)s1 [Example 36, 2-(4-fluorophenyl)-N-(4-(hydroxymethyl)phenyl)thiazole-5-sulfonamide]
37 | 1 to 100 | CC(C)Oc1cc(C(=O)O)ccc1NS(=O)(=O)c1cnc(-c2ccc(F)cc2)s1 [Example 37]
38 | 1 to 100 | CC(C)(C)c1ccc(S(=O)(=O)NC(=O)OCc2ccc(NS(=O)(=O)c3cnc(-c4ccc(F)cc4)s3)cc2)cc1 [Example 38, 4-((2-(4-fluorophenyl)thiazole)-5-sulfonamido)benzyl ((4-(tert-butyl)phenyl)sulfonyl)carbamate]
39 | < 0.1 | COc1cc(C(=O)O)c(F)cc1NS(=O)(=O)c1cnc(-c2ccc(F)cc2)s1 [Example 39]
40 | < 0.1 | O=C(O)c1ccc(NS(=O)(=O)c2cnc(-c3ccc(F)cc3)s2)c(O)c1 [Example 40, 4-((2-(4-fluorophenyl)thiazole)-5-sulfonamido)-3-hydroxybenzoic acid]

Row | IC50 [µM] | SMILES
41 | 1 to 100 | COc1ccc(NS(=O)(=O)c2cnc(-c3ccc(F)cc3)s2)cc1 [Example 42]
42 | 1 to 100 | O=C(O)c1ccc(NS(=O)(=O)c2cnc(-c3ccc(F)cc3)s2)c(OC2CC2)c1 [Example 43]
43 | 1 to 100 | O=C(O)c1ccc(NS(=O)(=O)c2cnc(-c3ccc(F)cc3)s2)c(C2CC2)c1 [Example 44]
44 | 1 to 100 | O=C(O)c1ccc(NS(=O)(=O)c2cnc(-c3ccc(F)cc3)s2)c(C(F)(F)F)c1 [Example 45]
45 | 0.1 to 0.5 | O=C(O)c1cc(F)c(NS(=O)(=O)c2cnc(-c3ccc(F)cc3)s2)c(F)c1 [Example 46]
46 | 1 to 100 | O=C(O)c1ccc(NS(=O)(=O)c2cnc(-c3ccc(F)cc3)s2)cc1-c1ccccc1 [Example 47]
47 | 1 to 100 | O=C(O)c1ccc(NS(=O)(=O)c2cnc(-c3ccc(F)cc3)s2)c(OC(F)(F)F)c1 [Example 48]
48 | 1 to 100 | O=C(O)c1ccc(NS(=O)(=O)c2cnc(-c3ccc(F)cc3)s2)c(OC(F)F)c1 [Example 49]
49 | 0.1 to 0.5 | O=C(O)c1ccc(NS(=O)(=O)c2cnc(-c3ccc(F)cc3)s2)c(F)c1F [Example 50]
50 | 1 to 100 | O=C(O)c1ccc(S(=O)(=O)Nc2ccc(-c3nccs3)cc2)cc1 [Example 51]
51 | 1 to 100 | O=C(O)c1ccc(NS(=O)(=O)c2cscn2)cc1 [Example 52]
52 | 1 to 100 | Cc1nc(S(=O)(=O)Nc2ccc(C(=O)O)cc2)cs1 [Example 53]
53 | 1 to 100 | Cc1cnn(-c2ccc(S(=O)(=O)Nc3ccc(C(=O)O)cc3)cc2F)c1 [Example 54]
54 | 1 to 100 | Cc1sc(-c2ccc(F)cc2)nc1S(=O)(=O)Nc1ccc(C(=O)O)cc1 [Example 55, 4-((2-(4-fluorophenyl)-5-methylthiazole)-4-sulfonamido)benzoic acid]
55 | 0.5 to 1 | COc1ccc(-c2nc(S(=O)(=O)Nc3ccc(C(=O)O)cc3)cs2)cc1 [Example 56, 4-((2-(4-methoxyphenyl)thiazole)-4-sulfonamido)benzoic acid]
56 | 1 to 100 | O=C(O)c1ccc(NS(=O)(=O)c2csc(N3CCOCC3)n2)cc1 [Example 57, 4-((2-morpholinothiazole)-4-sulfonamido)benzoic acid]
57 | 1 to 100 | O=C(O)c1ccc(NS(=O)(=O)c2csc(N3CCC(F)(F)CC3)n2)cc1 [Example 58]
58 | 0.1 to 0.5 | COc1c(NS(=O)(=O)c2cnc(-c3ccc(F)cc3)s2)ccc(C(=O)O)c1F [Example 59]
